Key:
[1] = test system: Conyza canadiensis (ERICA); experiment: Greenhouse post-emergence weed control, percent injury vs untreated control; format: in vivo; conditions: 504 h
Experimental: (§1) Glufosinate was used as a commercial SL formulation containing 280 g ai/l of glufosinate (Liberty 280 SL, BASF). While the PPO herbicide Cadet containing 109 g ai/l fluthiacet-methyl was used (Cadet, FMC) formulation. • The evaluation for plant injury or damage caused by the chemical compositions was carried out using a scale from 0-100% when compared with the untreated control plants. Here, 0 means no damage and 100 means complete destruction of the plants.
(§2) 22., E=X+Y−(X*Y/100), where • X=effect in percent using herbicide A at an application rate of a; • Y=effect in percent using herbicide B at an application rate of b; • E=expected effect (in %) of A+B at application rates a+b.
(§3) The value E corresponds to the effect (plant damage or injury) which is to be expected if the activity of the individual compounds is just additive. If the observed effect is higher than the value E calculated according to Colby, a synergistic effect is present.
(§4) Seedlings of marestail (Conyza canadiensis; ERICA) and barnyardgrass (Echinochloa crusgalli; ECHCG) were treated with postemergence applications of either glufosinate at 246 g ai/ha, fluthiacet-methyl at 0.72 g ai/ha, or the combination of glufosinate (246 g ai/ha) and fluthiacet-methyl (0.72 g ai/ha), respectively, when they were 5-10 cm in height. All glufosinate treatments contained 1% (w/v) ammonium sulfate and solo fluthiacet-methyl treatments contained 1% (w/v) ammonium sulfate plus 1% (v/v) MSO surfactant. Plants were placed in a completely randomized design with four replications per treatment. Percent injury data was collected 21 days after treatment (DAT).

[2] = test system: Echinochloa crus-galli (ECHCG); experiment: as above; format: in vivo; conditions: 504 h
Experimental: as §1, §2, §3, §4

[3] = read-out: % activity, Solo Glufosinate (246 g ai/ha)

| SMILES | inhibition at 0.72 g/ha ([1]; ERICA seedlings 5-10 cm, postemergence, 0.72 g ai/ha, 21 DAT, 1% ammonium sulfate plus 1% MSO, scale 0-100%, read-out: % activity, Solo Fluthiacet-methyl (0.72 g ai/ha)) | inhibition at 0.72 g/ha ([2]; ECHCG seedlings 5-10 cm, postemergence, 0.72 g ai/ha, 21 DAT, 1% ammonium sulfate plus 1% MSO, scale 0-100%, read-out: % activity, Solo Fluthiacet-methyl (0.72 g ai/ha)) | inhibition at 246 g/ha [1, 3] | inhibition at 246 g/ha [2, 3] |
| --- | --- | --- | --- | --- |
| COC(=O)CSc1cc(/N=c2\sc(=O)n3n2CCCC3)c(F)cc1Cl [Fluthiacet-methyl, fluthiacet-methyl] | 23% | 20% |  |  |
| CP(=O)(O)CCC(N)C(=O)O (racemic) [Glufosinate, (2RS)-2-amino-4-[hydroxy(methyl)phosphinoyl]butyric acid] |  |  | 58% | 53% |

Reference: US20230089506A1, “Herbicide Combinations Comprising Glufosinate and Fluthiacet-Methyl” (BASF SE, priority 2020, published 2023)
